target: T1, active p38 alpha enzyme (Upstate Biotechnology) (Homo sapiens, UniProt Q16539); test: p38α biochemical assay (ATP turnover, luminescent detection, Cambrex PKlight); conditions: p38α biochemical assay, Table 1 Biological Activity
T1 construct: purchased Upstate Biotechnology
Outline: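 In this kinase reaction, p38α used MapkapK2 as phosphorylation substrate at low ATP (1.4 uM final) over 2 hours at 30C, and activity was followed as ATP turnover by luminescence.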

T1 sequence (Q16539 whole entry): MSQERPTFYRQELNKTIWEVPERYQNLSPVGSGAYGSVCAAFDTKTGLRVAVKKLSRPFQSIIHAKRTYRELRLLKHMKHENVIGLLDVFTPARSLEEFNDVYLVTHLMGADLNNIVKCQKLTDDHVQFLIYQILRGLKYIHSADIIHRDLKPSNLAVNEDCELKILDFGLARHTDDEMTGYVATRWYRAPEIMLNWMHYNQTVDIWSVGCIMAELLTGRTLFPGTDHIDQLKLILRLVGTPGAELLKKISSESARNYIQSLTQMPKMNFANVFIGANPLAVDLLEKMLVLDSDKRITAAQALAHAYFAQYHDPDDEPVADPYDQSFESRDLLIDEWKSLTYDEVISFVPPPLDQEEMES

IC50 [nM]	SMILES
> 1000	CC(C)NC(=O)c1csc(-c2oc(CN3CCN(C(=O)c4ccc(F)c([N+](=O)[O-])c4)CC3)nc2-c2ccc(F)cc2)n1 [Example 474]
> 1000	COc1cc(Cl)ccc1C(=O)N1CCN(Cc2nc(-c3ccc(F)cc3)c(-c3nc(C(=O)NC(C)C)cs3)o2)CC1 [Example 476]
> 1000	COc1cc(C(=O)N2CCN(Cc3nc(-c4ccc(F)cc4)c(-c4nc(C(=O)NC(C)C)cs4)o3)CC2)cc(Cl)n1 [Example 478]
> 1000	CC(C)NC(=O)c1csc(-c2oc(CN3CCN(C(=O)c4c(O)ccc5ccccc45)CC3)nc2-c2ccc(F)cc2)n1 [Example 480]
> 1000	CC(C)NC(=O)c1csc(-c2oc(CN3CCN(C(=O)C(C)NC(=O)OC(C)(C)C)CC3)nc2-c2ccc(F)cc2)n1 (centres unmarked) [Example 485]
> 1000	CC(C)NC(=O)c1csc(-c2oc(CN3CCN(C(=O)/C=C/c4ccc5c(c4)OCO5)CC3)nc2-c2ccc(F)cc2)n1 [Example 492]
> 1000	CC(C)NC(=O)c1csc(-c2oc(CN3CCN(C(=O)c4cc(F)c(F)cc4Cl)CC3)nc2-c2ccc(F)cc2)n1 [Example 495]
≤ 1000	CCN(CC)c1ccc(C(=O)N2CCN(Cc3nc(-c4ccc(F)cc4)c(-c4nc(C(=O)NC(C)C)cs4)o3)CC2)cc1 [Example 497]
≤ 1000	COc1ccc(/C=C/C(=O)N2CCN(Cc3nc(-c4ccc(F)cc4)c(-c4nc(C(=O)NC(C)C)cs4)o3)CC2)cc1O [Example 499]
> 1000	COc1ccc([N+](=O)[O-])c(C(=O)N2CCN(Cc3nc(-c4ccc(F)cc4)c(-c4nc(C(=O)NC(C)C)cs4)o3)CC2)c1 [Example 502]
> 1000	CC(C)NC(=O)c1csc(-c2oc(CN3CCN(C(=O)c4cccc(Br)c4)CC3)nc2-c2ccc(F)cc2)n1 [Example 505]
> 1000	CC(C)NC(=O)c1csc(-c2oc(CN3CCN(C(=O)c4ccc(Cl)cc4[N+](=O)[O-])CC3)nc2-c2ccc(F)cc2)n1 [Example 510]
> 1000	CC(C)NC(=O)c1csc(-c2oc(CN3CCN(C(=O)c4cc(Cl)ccc4[N+](=O)[O-])CC3)nc2-c2ccc(F)cc2)n1 [Example 512]
> 1000	CC(C)NC(=O)c1csc(-c2oc(CN3CCN(C(=O)c4cncc(Br)c4)CC3)nc2-c2ccc(F)cc2)n1 [Example 514]
≤ 1000	CC(C)NC(=O)c1csc(-c2oc(CN3CCN(C(=O)Cc4ccc(C(F)(F)F)cc4)CC3)nc2-c2ccc(F)cc2)n1 [Example 516]
≤ 1000	CC(C)Cc1ccc(C(C)C(=O)N2CCN(Cc3nc(-c4ccc(F)cc4)c(-c4nc(C(=O)NC(C)C)cs4)o3)CC2)cc1 (centres unmarked) [Example 517]
≤ 1000	COc1cc(OC)c(C(=O)N2CCN(Cc3nc(-c4ccc(F)cc4)c(-c4nc(C(=O)NC(C)C)cs4)o3)CC2)c(OC)c1 [Example 520]
≤ 1000	COc1ccc(C(=O)N2CCN(Cc3nc(-c4ccc(F)cc4)c(-c4nc(C(=O)NC(C)C)cs4)o3)CC2)c(OC)c1OC [Example 523]
≤ 1000	CC(C)NC(=O)c1csc(-c2oc(CN3CCN(C(=O)c4ccccc4Cc4ccccc4)CC3)nc2-c2ccc(F)cc2)n1 [Example 524]

Second part, the molecule before the results:

SMILES	IC50 [nM]
Cc1ccc(SCC(=O)N2CCN(Cc3nc(-c4ccc(F)cc4)c(-c4nc(C(=O)NC(C)C)cs4)o3)CC2)cc1 [Example 466]	> 1000
CC(C)NC(=O)c1csc(-c2oc(CN3CCN(C(=O)/C=C/c4ccc(Cl)cc4)CC3)nc2-c2ccc(F)cc2)n1 [Example 467]	> 1000
CC(C)NC(=O)c1csc(-c2oc(CN3CCN(C(=O)/C=C/c4ccccc4Cl)CC3)nc2-c2ccc(F)cc2)n1 [Example 468]	> 1000
CC(C)NC(=O)c1csc(-c2oc(CN3CCN(C(=O)c4ccc([N+](=O)[O-])c(O)c4)CC3)nc2-c2ccc(F)cc2)n1 [Example 469]	> 1000
CC(C)NC(=O)c1csc(-c2oc(CN3CCN(C(=O)c4cc(O)ccc4[N+](=O)[O-])CC3)nc2-c2ccc(F)cc2)n1 [Example 470]	> 1000
CC(C)NC(=O)c1csc(-c2oc(CN3CCN(C(=O)c4cc([N+](=O)[O-])ccc4O)CC3)nc2-c2ccc(F)cc2)n1 [Example 471]	≤ 1000
CC(C)NC(=O)c1csc(-c2oc(CN3CCN(C(=O)c4cc([N+](=O)[O-])ccc4F)CC3)nc2-c2ccc(F)cc2)n1 [Example 472]	> 1000
CC(C)NC(=O)c1csc(-c2oc(CN3CCN(C(=O)c4cc(F)ccc4[N+](=O)[O-])CC3)nc2-c2ccc(F)cc2)n1 [Example 473]	> 1000
COc1ccc(Cl)cc1C(=O)N1CCN(Cc2nc(-c3ccc(F)cc3)c(-c3nc(C(=O)NC(C)C)cs3)o2)CC1 [Example 475]	> 1000
CC(C)NC(=O)c1csc(-c2oc(CN3CCN(C(=O)Cc4ccc(O)c(Cl)c4)CC3)nc2-c2ccc(F)cc2)n1 [Example 477]	> 1000
CC(C)NC(=O)c1csc(-c2oc(CN3CCN(C(=O)c4ccc5cc(O)ccc5c4)CC3)nc2-c2ccc(F)cc2)n1 [Example 479]	> 1000
CC(C)NC(=O)c1csc(-c2oc(CN3CCN(C(=O)c4cc5ccccc5cc4O)CC3)nc2-c2ccc(F)cc2)n1 [Example 481]	> 1000
CC(C)NC(=O)c1csc(-c2oc(CN3CCN(C(=O)c4ccc5ccccc5c4O)CC3)nc2-c2ccc(F)cc2)n1 [Example 482]	> 1000
CC(C)NC(=O)c1csc(-c2oc(CN3CCN(C(=O)c4ccc5cccc(O)c5n4)CC3)nc2-c2ccc(F)cc2)n1 [Example 483]	≤ 1000
CC(C)NC(=O)c1csc(-c2oc(CN3CCN(C(=O)C(C)NC(=O)OC(C)(C)C)CC3)nc2-c2ccc(F)cc2)n1 (centres unmarked) [Example 484]	> 1000
CC(C)NC(=O)c1csc(-c2oc(CN3CCN(C(=O)c4ccccc4C(F)(F)F)CC3)nc2-c2ccc(F)cc2)n1 [Example 486]	> 1000
CC(C)NC(=O)c1csc(-c2oc(CN3CCN(C(=O)CCc4nc5ccccc5[nH]4)CC3)nc2-c2ccc(F)cc2)n1 [Example 487]	> 1000
CC(C)NC(=O)c1csc(-c2oc(CN3CCN(C(=O)c4cccc(Cl)c4Cl)CC3)nc2-c2ccc(F)cc2)n1 [Example 488]	> 1000
CC(C)NC(=O)c1csc(-c2oc(CN3CCN(C(=O)c4ccc(Cl)cc4Cl)CC3)nc2-c2ccc(F)cc2)n1 [Example 489]	> 1000
CC(C)NC(=O)c1csc(-c2oc(CN3CCN(C(=O)c4cc(Cl)ccc4Cl)CC3)nc2-c2ccc(F)cc2)n1 [Example 490]	> 1000
CC(C)NC(=O)c1csc(-c2oc(CN3CCN(C(=O)c4cc(F)c(F)c(O)c4F)CC3)nc2-c2ccc(F)cc2)n1 [Example 491]	> 1000
Cc1ccc(C(=O)CCC(=O)N2CCN(Cc3nc(-c4ccc(F)cc4)c(-c4nc(C(=O)NC(C)C)cs4)o3)CC2)cc1 [Example 493]	> 1000

SMILES	IC50 [nM]
CCCCCc1ccc(C(=O)N2CCN(Cc3nc(-c4ccc(F)cc4)c(-c4nc(C(=O)NC(C)C)cs4)o3)CC2)cc1 [Example 494]	> 1000
CC(C)NC(=O)c1csc(-c2oc(CN3CCN(C(=O)c4cc(F)c(Cl)cc4F)CC3)nc2-c2ccc(F)cc2)n1 [Example 496]	> 1000
COc1cc(/C=C/C(=O)N2CCN(Cc3nc(-c4ccc(F)cc4)c(-c4nc(C(=O)NC(C)C)cs4)o3)CC2)ccc1O [Example 498]	≤ 1000
CCCCOc1ccc(C(=O)N2CCN(Cc3nc(-c4ccc(F)cc4)c(-c4nc(C(=O)NC(C)C)cs4)o3)CC2)cc1 [Example 500]	≤ 1000
CC(C)NC(=O)c1csc(-c2oc(CN3CCN(C(=O)c4cc5cc(Cl)ccc5o4)CC3)nc2-c2ccc(F)cc2)n1 [Example 501]	> 1000
COc1cc(C(=O)N2CCN(Cc3nc(-c4ccc(F)cc4)c(-c4nc(C(=O)NC(C)C)cs4)o3)CC2)cc(OC)c1O [Example 503]	≤ 1000
CC(C)NC(=O)c1csc(-c2oc(CN3CCN(C(=O)c4ccccc4-c4ccccc4)CC3)nc2-c2ccc(F)cc2)n1 [Example 504]	≤ 1000
CC(C)NC(=O)c1csc(-c2oc(CN3CCN(C(=O)c4ccc(Br)cc4)CC3)nc2-c2ccc(F)cc2)n1 [Example 506]	> 1000
CC(C)NC(=O)c1csc(-c2oc(CN3CCN(C(=O)c4cccc(Cl)c4[N+](=O)[O-])CC3)nc2-c2ccc(F)cc2)n1 [Example 507]	≤ 1000
CC(C)NC(=O)c1csc(-c2oc(CN3CCN(C(=O)C4N=CC([N+](=O)[O-])=CC=C4Cl)CC3)nc2-c2ccc(F)cc2)n1 (centres unmarked) [Example 508]	≤ 1000
CC(C)NC(=O)c1csc(-c2oc(CN3CCN(C(=O)c4ccc([N+](=O)[O-])cc4Cl)CC3)nc2-c2ccc(F)cc2)n1 [Example 509]	> 1000
CC(C)NC(=O)c1csc(-c2oc(CN3CCN(C(=O)c4ccc(Cl)c([N+](=O)[O-])c4)CC3)nc2-c2ccc(F)cc2)n1 [Example 511]	> 1000
CC(C)NC(=O)c1csc(-c2oc(CN3CCN(C(=O)c4cccc(Br)n4)CC3)nc2-c2ccc(F)cc2)n1 [Example 513]	> 1000
CC(C)NC(=O)c1csc(-c2oc(CN3CCN(C(=O)c4cc(F)c(F)cc4[N+](=O)[O-])CC3)nc2-c2ccc(F)cc2)n1 [Example 515]	≤ 1000
CC(C)NC(=O)c1csc(-c2oc(CN3CCN(C(=O)c4cc(Cl)c(O)c(Cl)c4)CC3)nc2-c2ccc(F)cc2)n1 [Example 518]	> 1000
CC(C)NC(=O)c1csc(-c2oc(CN3CCN(C(=O)c4c(F)c(F)c(F)c(F)c4F)CC3)nc2-c2ccc(F)cc2)n1 [Example 519]	≤ 1000
COc1cc(OC)c(C(=O)N2CCN(Cc3nc(-c4ccc(F)cc4)c(-c4nc(C(=O)NC(C)C)cs4)o3)CC2)cc1OC [Example 521]	≤ 1000
COc1cc(C(=O)N2CCN(Cc3nc(-c4ccc(F)cc4)c(-c4nc(C(=O)NC(C)C)cs4)o3)CC2)cc(OC)c1OC [Example 522]	> 1000
CC(C)NC(=O)c1csc(-c2oc(CN3CCN(C(=O)c4cccc(Oc5ccccc5)c4)CC3)nc2-c2ccc(F)cc2)n1 [Example 525]	> 1000
CC(C)NC(=O)c1csc(-c2oc(CN3CCN(C(=O)c4ccccc4Oc4ccccc4)CC3)nc2-c2ccc(F)cc2)n1 [Example 526]	> 1000
CC(C)NC(=O)c1csc(-c2oc(CN3CCN(C(=O)c4ccc(Oc5ccccc5)cc4)CC3)nc2-c2ccc(F)cc2)n1 [Example 527]	≤ 1000

Reference: patent US20060252807A1, “Novel ortho-terphenyl inhibitors of p38 kinase and methods of treating inflammatory disorders” (Kalypsys, Inc., priority 2005, published 2006)
